Reference: paper PMC6492175, “Glio‐ and neuro‐protection by prosaposin is mediated by orphan G‐protein coupled receptors GPR37L1 and GPR37” (Glia, 2018)
Like-named read-outs stand apart in the source and are kept apart here.

How the values were obtained:
[1] = test system: astrocytes; assay: Scratch wound assay (astrocyte migration); type: cell-based, Wistar rat; conditions: for wound closure: monitored 72 hr, n = 5, triplicates; for ability of astrocytes to close the wound: PDM, n = 6, triplicates
Protocol: A wound recovery assay was carried out to analyze the migration of astrocytes using the IncuCyte system (Essen BioScience Inc., Ann Arbor, MI). Primary astrocytes were seeded in ImageLock 96‐well plates (4,379, Essen BioScience) at a density of 4 × 10^4 per well. After 24 hr, standardized and reproducible (700–800 μm wide) scratch “wounds” were created in all wells using a dedicated device. Cultures were exposed to different testing conditions, for example, stressors, and were maintained and imaged at hourly intervals up to 72 hr.
Cell density was measured in the scratch area and compared to undisrupted adjacent monolayer. Relative wound density (%), a measure of wound recovery, was calculated using the formula: Relative wound density (%) = (Density of wound region at certain time point – Initial density of wound region)/(Density of intact cell region at certain time point − Initial density of wound) × 100%.

[2] = test system: astrocytes; assay: DAPI staining, astrocyte cell number; type: cell-based, Wistar rat; conditions: for cell numbers (DAPI) vs control: n = 4, triplicates, Dunnett's
Protocol: Astrocytes were seeded in 96‐well plate (1 × 10^4 per well) and fixed in 4% paraformaldehyde for 5 min, washed in PBS three times for 5 min each time before and after incubating with 1 μg/mL DAPI for 10 min. Round and whole nuclei in nine fields of view per well were counted using ImageJ (NIH, Bethesda, MD).

[3] = test system: primary astrocytes; conditions: 5 hr, LDH 24 hr later, PDM
Protocol: Primary cultures of astrocytes were prepared from the cerebral cortices, cerebellum, and brainstem from Wistar rat pups (P2) following protocols described previously (1–3). Briefly, the brains of Wistar P2 pups were dissected out, crudely cross‐chopped and bathed in a solution containing HBSS, DNase I (0.04 mg/mL), trypsin from bovine pancreas (0.25 mg/mL) and BSA (3 mg/mL). The preparation was agitated at 37 °C for 15 min. Trypsinization of the brain tissue was terminated by the addition of equal volumes of culture media comprised of DMEM, 10% heat‐inactivated FBS, 100 U/mL penicillin, and 0.1 mg/mL streptomycin and then centrifuged at 2000 rpm, at room temperature (RT) for 10 min. The supernatant was aspirated, and the remaining pellet was resuspended in 15 mL HBSS containing BSA (3 mg/mL) and DNase I (0.04 mg/mL) and triturated gently. After the cell debris had settled, the cell suspension was filtered through a 40‐μm cell strainer (BD Falcon, BD Biosciences, Franklin Lakes, NJ) and cells were collected after centrifugation. Cells were seeded in a T75 flask containing culture media (see above) and maintained at 37 °C with 5% CO2. Once the cultures reached confluence and 1 week later, the flasks were mildly shaken overnight to remove microglia and oligodendrocytes. When astrocytes were seeded for experiments, media was changed to DMEM supplemented with 5% FBS instead of 10% FBS.
Lactate dehydrogenase (LDH) release from damaged cells was assessed colorimetrically with LDH Cytotoxicity Assay Kit (Pierce) according to the manufacturer's instructions. Activity is proportional to colorimetric reduction of tetrazolium salt measured at 490 nm. Cytotoxicity was normalized to maximal LDH activity as released from cells acutely exposed to Triton X‐100, and calculated using the formula: % Cytotoxicity = (Compound‐treated LDH activity – Spontaneous LDH activity)/(Maximum LDH activity – Spontaneous LDH activity) × 100%.
The media was then replaced by fresh PDM with or without TX14(A). Cells were incubated for a further 24 hr before carrying out the LDH reaction on 50 μL of media.

[4] = test system: PSAP; assay: Immunodetection (Western blot) of PSAP in neuron-astrocyte co-culture media; type: cell-based, Wistar rat; conditions: H2O2 stress applied to neurons, Figure S9
[5] = test system: GPR37L1/GPR37; assay: Luminescence-based GloSensor cAMP assay in astrocytes; type: cell-based, Wistar rat; conditions: NKH477 1 μM, rat astrocytes
Protocol: The GloSensor assay uses genetically encoded biosensor variants with cAMP binding domains fused to mutant forms of Photinus pyralis luciferase. The luminescence of the reporter increases directly proportionally to the amount of cAMP present. Astrocytes were seeded in 96‐well plates and transduced with an AVV bearing the CMV‐driven GLO22F at multiplicity of infection (MOI) 10. After 24 hr transduction, media was exchanged for 100 μL HEPES‐buffered HBSS (pH 7.6). Cells were then incubated with 0.731 mM beetle luciferin for 2 hr in the dark. After baseline reading, NKH477 and/or TX14(A) were added to the wells and incubated for 20 min. Luminescence measurements were obtained using a Tecan microplate reader (Infinite M200 PRO).

[6] = target: GPR37 (rat, endogenous in astrocytes) (rat (endogenous in primary astrocytes)) (UniProt Q9QYC6)
[7] = target: GPR37L1 (rat, endogenous in astrocytes) (rat (endogenous in primary astrocytes)) (UniProt Q9QYC5)
[8] = test system: gerbils; set-up: method as in Sano et al., 1994; conditions: recombinant, chronic icv infusion, ref Sano et al., 1994; cited from earlier work
[9] = test system: neuroblastoma NS20 line; set-up: method as in O'Brien et al., 1994; conditions: ref O'Brien et al., 1994; cited from earlier work
[10] = target: neuroblastoma NS20 line; set-up: method as in O'Brien et al., 1994; conditions: radio-labeled Sap C, ref O'Brien et al., 1994, read-out: Kd of specific binding; cited from earlier work
[11] = test system: receptor of ~54 kDa; conditions: ref Hiraiwa et al., 1997; cited from earlier work

GPR37 (rat, endogenous in astrocytes) (rat (endogenous in primary astrocytes)), sequence (Q9QYC6 27-603): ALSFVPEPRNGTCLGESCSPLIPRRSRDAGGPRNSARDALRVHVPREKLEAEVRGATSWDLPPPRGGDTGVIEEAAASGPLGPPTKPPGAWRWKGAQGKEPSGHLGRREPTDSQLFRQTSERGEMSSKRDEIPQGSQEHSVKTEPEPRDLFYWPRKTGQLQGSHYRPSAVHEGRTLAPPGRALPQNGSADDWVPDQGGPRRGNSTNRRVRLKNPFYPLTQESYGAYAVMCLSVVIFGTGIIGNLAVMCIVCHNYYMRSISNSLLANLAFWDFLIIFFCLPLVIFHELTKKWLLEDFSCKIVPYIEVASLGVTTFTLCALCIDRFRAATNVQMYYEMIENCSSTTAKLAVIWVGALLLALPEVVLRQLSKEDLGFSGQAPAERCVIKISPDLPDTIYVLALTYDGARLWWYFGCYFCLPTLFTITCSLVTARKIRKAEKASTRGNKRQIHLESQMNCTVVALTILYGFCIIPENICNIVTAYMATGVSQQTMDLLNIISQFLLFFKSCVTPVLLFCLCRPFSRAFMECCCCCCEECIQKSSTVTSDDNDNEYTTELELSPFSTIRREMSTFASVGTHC
GPR37L1 (rat, endogenous in astrocytes) (rat (endogenous in primary astrocytes)), sequence (Q9QYC5 25-481): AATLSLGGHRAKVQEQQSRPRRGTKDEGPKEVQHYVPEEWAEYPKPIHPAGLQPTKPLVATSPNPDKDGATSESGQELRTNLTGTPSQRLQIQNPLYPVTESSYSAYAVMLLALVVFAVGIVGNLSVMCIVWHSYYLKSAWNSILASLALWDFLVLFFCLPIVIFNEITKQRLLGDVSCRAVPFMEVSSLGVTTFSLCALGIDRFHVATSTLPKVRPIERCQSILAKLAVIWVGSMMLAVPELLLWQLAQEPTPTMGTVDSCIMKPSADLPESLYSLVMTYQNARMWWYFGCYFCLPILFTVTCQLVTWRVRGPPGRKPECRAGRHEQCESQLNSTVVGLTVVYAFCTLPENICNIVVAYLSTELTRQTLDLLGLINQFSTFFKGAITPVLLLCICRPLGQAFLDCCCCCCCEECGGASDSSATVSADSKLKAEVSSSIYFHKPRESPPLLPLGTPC

O=C(Nc1ncnc2c1ncn2[C@@H]1O[C@@H]2COP(=O)(O)O[C@H]2[C@H]1O)c1ccccc1 [6‐BenZ‐cAMP]
wound closure ([1]; 6-benz-cAMP 250–1,000 μM, concentration-dependent): greatly slowed down wound closure
cell numbers (DAPI) vs control ([2]; 6-BenZ-cAMP 500 μM): significantly decreased cell numbers as compared to control

CO[C@@H]1[C@@H]2OP(=O)(O)OC[C@H]2O[C@H]1n1c(Sc2ccc(Cl)cc2)nc2c(N)ncnc21 [8‐pCPT‐2′‐O‐Me‐cAMP]
wound closure ([1]; 8-pCPT-2′-O-Me-cAMP 250–1,000 μM): had no effect
cell numbers (DAPI) vs control ([2]; 8-pCPT-2′-O-Me-cAMP 1,000 μM): significantly decreased cell numbers as compared to control

OO [H2O2]
ability of astrocytes to close the wound ([1]; H2O2, 5 hr pre-exposure, 48 hr): drastically inhibited their ability to close the wound
cytotoxicity (LDH release) ([3]; H2O2 250 μM): comparable degree of cytotoxicity
PSAP in co-culture media [4]: increase in PSAP in co‐culture media in response to H2O2 stress

C=C[C@@]1(C)CC(=O)[C@]2(O)[C@@]3(C)[C@@H](O)CCC(C)(C)[C@@H]3[C@H](OC(=O)CCN(C)C)[C@H](OC(C)=O)[C@@]2(C)O1.Cl [NKH477]
increase of baseline cAMP levels [5]: ~ 20 fold
cell numbers (DAPI) vs control ([2]; NKH477 10 μM): significantly decreased cell numbers as compared to control

C=C(C)[C@H]1Cc2c(ccc3c2O[C@@H]2COc4cc(OC)c(OC)cc4[C@@H]2C3=O)O1 [rotenone]
cytotoxicity (LDH release) ([3]; rotenone 100 μM): comparable degree of cytotoxicity

CN[C@@H]1C[C@H]2O[C@@](C)([C@@H]1OC)n1c3ccccc3c3c4c(c5c6ccccc6n2c5c31)C(=O)NC4 [staurosporine]
ability of astrocytes to close the wound ([1]; staurosporine, 5 hr pre-exposure, 48 hr): drastically inhibited their ability to close the wound
cytotoxicity (LDH release) ([3]; staurosporine 200 nM): comparable degree of cytotoxicity

prosaptide TX14(A) (peptide)
inhibition of NKH477 (1 μM)-raised cAMP in rat astrocytes, GloSensor luminescence, concentration-response of TX14(A); obliterated by combined knock-down of GPR37L1 and GPR37 [6]: 17.8 nM
percent inhibition of NKH477-mediated cAMP production in rat astrocytes at the maximal concentration of TX14(A) used (200 nM), GloSensor [6]: 40%
inhibition of NKH477 (1 μM)-raised cAMP in rat astrocytes, GloSensor luminescence, concentration-response of TX14(A); obliterated by combined knock-down of GPR37L1 and GPR37 [7]: 17.8 nM
percent inhibition of NKH477-mediated cAMP production in rat astrocytes at the maximal concentration of TX14(A) used (200 nM), GloSensor [7]: 40%

B1: PSAP: prosaposin, neurotrophic factor, precursor of Saposin C (protein)
chain: SPVLGLRECTRGSAVWCQNVKTAADCGAVQHCLQTVWSKPTVKSLPCDICKDVITAAGNLLKDNATEQEILMYLERTCDWLPKPNMSASCKEIVDSYLPVILDMIKGQMSHPGEVCSALNLCESLQKHLAELNHQKQLESNQIPELDMAEVVAPFMANIPFLLYPQDGSHSKPQPKKANGNVCQDCIQLVTDVQEALRTNSTFVEALVDHAKEECDRLGPGMSDMCKNYINQYSEVAIQMVMHMQPKEICVLAGFCDEVKEMPMKTLVPAEVVSENVIPALGLVEPIKKDPAPAKADIYCEVCEFVVKEVAKLIDNNRTEEEILHALDKVCSKLPTSLAEQCQEVVDTYGSSILSILLDEASPELVCSMLHLCSSRGLPAATVRVMPRKDGGFCEVCKKLVGYLDRNLEKNSTKEQILAALEKGCSFLPDQYRKQCDQFVTEYEPVLIEILVEVMDPSFVCLKIGACPAAHKPLLGAEKCVWGPSYWCQNMESAALCNAVEHCRRHVWN
ischemia-induced learning deficits and neuronal loss [8]: almost completely prevented ischemia‐induced learning deficits and neuronal loss
wound closure after PSAP depletion ([1]; PSAP depleted by immunoadsorption vs FBS-containing media, 48 hr): drastically slowed down by PSAP depletion
number of cells in cultures (DAPI) ([2]; TX14(A) 100 nM in PDM, or PSAP depletion, n = 15): neither depletion of PSAP nor addition of TX14(A) affected the number of cells in cultures
neurotrophic activity [9]: identified as neurotrophic factors

B2: Sap C: Saposin C, fragment of prosaposin (protein, UniProt P07602 311-390, looked up)
Saposin-C: SDVYCEVCEFLVKEVTKLIDNNKTEKEILDAFDKMCSKLPKSLSEECQEVVDTYGSSILSILLEEVSPELVCSMLHLCSG
modifications: Saposin-C
notes: Saposin C, fragment of prosaposin
Kd [10]: 0.019 nM
neurotrophic activity [9]: identified as neurotrophic factors
interaction with receptor (molecular mass) [11]: interacts with a receptor of ~54 kDa
